The values below come from US11040949B2, “Compounds affecting pigment production and methods for treatment of bacterial diseases” (Versitech Limited, priority 2017, dated 2021).

By MIC is commonly meant the lowest concentration that inhibits growth of the organism. A higher MIC goes with a need for much substance.

Data set [1] concerns the target 4,4-diapophytoene desaturase (CrtN) (Staphylococcus aureus, UniProt O07855). As to conditions: reference [5]; cited from earlier work.
Another data set deals with S. aureus USA300. The data set can be described thus: In vitro staphyloxanthin production inhibition by NP-16 analogues. It is filed as cell-based, Staphylococcus aureus. The settings on record: S. aureus USA300, methanol extract OD 450 nm, 300 nM to 700 nM. The procedure:
Evaluation of NP-16 analogues in Staphyloxanthin production
The in vitro pigment inhibition studies were performed by S. aureus USA300 cultured in BHI with or without the presence of inhibitor compounds at 37° C. and 250 rpm for 36-48 hours. The bacteria were washed twice with PBS prior to the staphyloxanthin purification with methanol. The OD of the extracts were monitor at 450 nm using DTX880 multi-plate reader spectrophotometer (Beckman). The concentration range tested for the compounds were between 300 nM to 700 nM, and control groups were added with equal volume of DMSO.
The cytotoxicity of NP-16 and some of its analogues was tested against Raw 264.7 cells, and the cell tolerance of each compounds were documented in Table 3. Along with the in vitro staphyloxanthin production of the NP-16 analogues were being tested, the compounds can exert staphyloxanthin production inhibition. The staphyloxanthin from the overnight-cultured bacteria were extracted with methanol and quantified in via spectrophotometry. The results were presented in relative ratio to NP-16 in both the inhibition ratio as well as the TC50 (concentration for decreasing cell viability by 50%) in Table 3 (sample names correspond to those listed in Table 1).

A further data set concerns USA300. Nature of the data set: Minimum inhibitory concentration (MIC) test. The data set is classed as cell-based. As to conditions: Staphylococcus aureus. As to the method: Minimum Inhibitory Concentration (MIC) Tests
MIC was determined by inoculating 5×10^4 S. aureus cells in 100 μl BHI medium in 96-well plates with a serial dilution of antibiotics.

A further data set relates to MDCK cells. Nature of the data set: Cytotoxic activity on MDCK cells. It is filed as cell-based.
In data set [2] the test system is S. aureus COL. The data set can be described thus: Hydrogen peroxide susceptibility assay. The data set is classed as cell-based, Staphylococcus aureus. As to conditions: grown with NP16 (40 μM); 440 mM H2O2, 1 hr. The procedure:
(§1) Hydrogen Peroxide Susceptibility Assay
(§2) S. aureus was grown in BHI with or without NP16 (40 μM). After 2 days, bacteria were washed twice in PBS, diluted to a concentration of 1×10^7 CFUs per 100 μl reaction mixture in a 96-well plate. Hydrogen peroxide (H2O2) in PBS was added to a 440 mM final concentration, and the plate was incubated for 1 hr at 37° C. with shaking. The reaction was stopped by the addition of 1,000 U/ml of exogenous catalase (Sigma-Aldrich, St. Louis, Mo.), and bacterial viability was assessed by plating dilutions on BHI agar plates.

Data set [3] relates to non-pigmented strain RN6390. The data set can be described thus: Hydrogen peroxide susceptibility assay, non-pigmented strain. The settings on record: non-pigmented strain RN6390, with or without NP16. It is filed as cell-based, Staphylococcus aureus. As to the method: as §1, §2
The subject of data set [4] is S. aureus COL. The data set can be described thus: Bactericidal activity of human polymorphonuclear leukocytes. It is filed as cell-based, Staphylococcus aureus. The settings on record: NP16-treated COL vs COL. The procedure:
Bactericidal Activity of Polymorphonuclear Leukocytes
The killing of S. aureus by human polymorphonuclear leukocytes (PMNs) was determined as previously described, with some modifications. Briefly, PMNs (10^6) were mixed with ˜10^7 opsonized S. aureus bacteria MOI=10 in 24-well tissue culture plates. After centrifuged at 380 g for 8 min, plates were incubated at 37° C. for up to 1.5 h. PMNs were lysed with saponin (20 min on ice) and plated on BHIA plates. The percent survival was calculated by normalized with time zero. Statistics were performed with the Student's t-test (GraphPad Prism).

For data set [5], the system named is S. aureus COL. Nature of the data set: Murine intraperitoneal infection model, liver and spleen CFUs. It is filed as in vivo, BALB/c mice. As to the method:
(§3) For other S. aureus sub-type, eight- to ten-week-old female BALB/c mice were injected intraperitoneally (i.p) with 4×10^8 CFUs of early stationary phase S. aureus COL. After 3 d, animals were euthanized, the liver and spleen were isolated, homogenized in PBS, and plated on to obtain viable counts. For the treatment study, mice were randomized into two groups at the start of the experiment and administered, i.p., either 0.35 mg of NP16 or PBS with 5% Tween-80 as a control, twice per day, starting on d −1 to d 2 (a total of eight doses for each). Intraperitoneal challenge with 4×10^8 CFUs of early stationary phases S. aureus COL was performed on d 0. The mice were sacrificed on d 3 for enumeration of bacterial CFUs in liver and spleen homogenates.
(§4) With the same intraperitoneal challenge used in FIGS. 3a, 3b and 3e, one group of mice (n=14) was treated with 0.35 mg of NP16 twice per day (days −1, 0, 1 and 2), and a second group (n=12) with a vehicle control.

Data set [6] deals with clinical isolate S. aureus strain AE052. The data set can be described thus: Murine intraperitoneal infection model, kidney bacterial loads. The data set is classed as in vivo, BALB/c mice. As to the method:
as §3
For the clinical isolate S. aureus strain AE052, all operations were similar to those used for the COL strain, except 10^8 CFUs of early stationary phase bacteria were used in the infection model, and kidneys were collected for monitoring bacterial loads. Statistics were performed using the Student's t-test (GraphPad Prism).
as §4

Data set [7] deals with T1, 4,4-diapophytoene desaturase (CrtN) (Staphylococcus aureus, UniProt Q99R76).
T1 construct: made in house; host or cells: E. coli Rosetta (DE3)
T1 sequence (Q99R76 whole entry): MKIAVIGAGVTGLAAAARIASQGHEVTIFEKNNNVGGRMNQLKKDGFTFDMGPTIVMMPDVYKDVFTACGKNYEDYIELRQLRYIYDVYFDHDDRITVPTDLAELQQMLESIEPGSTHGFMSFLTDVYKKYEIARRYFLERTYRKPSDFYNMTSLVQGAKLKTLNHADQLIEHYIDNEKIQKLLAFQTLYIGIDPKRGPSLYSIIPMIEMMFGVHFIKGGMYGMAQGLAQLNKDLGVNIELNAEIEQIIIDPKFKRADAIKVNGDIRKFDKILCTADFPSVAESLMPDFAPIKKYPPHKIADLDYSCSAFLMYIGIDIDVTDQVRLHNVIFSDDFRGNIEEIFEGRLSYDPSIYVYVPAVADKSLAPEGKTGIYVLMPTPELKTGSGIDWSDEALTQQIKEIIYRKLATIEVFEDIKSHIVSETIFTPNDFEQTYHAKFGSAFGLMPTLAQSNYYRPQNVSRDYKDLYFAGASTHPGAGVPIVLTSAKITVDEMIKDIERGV
Nature of the data set: CrtN enzymatic assay. The data set is classed as biochemical, S. aureus. The procedure:
crtN Expression, Purification and Enzymatic Assay
CrtN with a histidine-maltose binding protein (MBP) tag was overexpressed in E. coli Rosetta (DE3) cells. A 10 ml overnight culture was transferred into 1 L of LB medium supplemented with 100 μg/ml ampicillin. Induction was carried out with 1 mM IPTG for 12 hours at 16° C. at an OD of 0.6 at 600 nm. The cell lysate was loaded onto a Ni-NTA column, and CrtN was eluted using a 75-ml linear gradient of 0-0.4 M imidazole in 50 mM sodium phosphate buffer, with 400 mM sodium chloride, pH 6.6. The collected fractions were analysed by SDS-PAGE to confirm the peak for MBP-CrtN. The target peak fractions were concentrated and the buffer was exchanged to loading buffer without imidazole using a PD-10 column (GE Healthcare). The collected solution was treated with TEV protease at 4° C. overnight. The protein sample was applied to a maltose column, and the flow-through was collected as native CrtN protein. For enzyme assay, 10 μg of purified CrtN was incubated with 100 μl of 4,4′-diapophytoene liposomes (containing 5 nmol of 4,4′-diapophytoene), 150 μM FAD and buffer II (20 mM phosphate buffer pH 8.0, 100 mM NaCl) in a total volume of 660 μl at 37° C. for 2 h (standard assay). The reaction was stopped by adding 1 volume of CHCl3: MeOH (2:1, v/v). Followed by mixing, the sample was centrifuged at 16,000 g for 10 min. […]

Sequence of 4,4-diapophytoene desaturase (CrtN) (Staphylococcus aureus, UniProt O07855) (O07855 whole entry): as the sequence (Q99R76 whole entry) above

For `c1ccc(Nc2ccccc2)cc1` [Diphenylamine], the “inhibitor of CrtN, level” value in data set [1] is on record as “high micromolar level”.
For `O=C(/C=C/c1ccccc1)Nc1ccc(S(=O)(=O)N2CCCC2)cc1` [NP16, 3-phenyl-N-[4-(1-pyrrolidinylsulfonyl)-phenyl]acrylamide], the “Relative ratio to NP16 based on inhibition ratio” value in the data set on S. aureus USA300 is recorded as 1. The same molecule returned an MIC in the data set on USA300 of over 500 µM. Also, the “effect on the growth of MDCK cells” value with MDCK cells is on record as “no effect on the growth of MDCK cells”. Further, the figures for the “susceptibility to hydrogen peroxide killing” value (in the data set on S. aureus COL [2]; in [3]) were “increase in the susceptibility of the pathogen to hydrogen peroxide killing” and “susceptibility was similar irrespective of NP16 treatment”, respectively. Moreover, the “survival in human neutrophils” value in the data set on S. aureus COL [4] was “COL survived significantly better than RN6390 and NP16-treated COL”. Further, the “bacterial counts in the livers and spleens” value in the data set with S. aureus COL [5] (0.35 mg twice per day i.p. (days -1, 0, 1, 2), 72 hours, vs control group, P<0.01) was “significantly lower”. In addition, the “decrease in surviving bacteria” value (in the data set on S. aureus COL [5] (treatment group infected with COL); in [6] (treatment group infected with AE052)) was 98% throughout. The “bacterial counts in the kidneys” value in [6] (0.35 mg twice per day i.p., 72 hours, vs control group, P<0.001) is reported as “significantly lower”. Further, the “mice below the detection threshold (kidneys)” value in [6] (n=10, versus 2 of 10 in the control group) is recorded as 6 of 10. Moreover, in data set [7], the “inhibition of CrtN” value was “inhibitor for CrtN”.
